# Results reported in US12054478B2, “Compositions and methods for inhibiting phenyl triazole MLL1-WDR5 protein-protein interaction” (China Pharmaceutical University, priority 2018, dated 2024).
# How the values were obtained:
# [1] = molecular target: MLL1-WDR5 protein-protein interactions (Homo sapiens, UniProt P61964); test: Inhibition of MLL1-WDR5 protein-protein interaction; format: binding; conditions: Table 1; read-out: MLL1-WDR5 PPI inhibition activity
# [2] = test system: H3K4 acetylation level (MLL1 catalytic activity in cells); test: Western-blot at cellular level, H3K4 acetylation (H3K4me1/2/3) levels; format: cell-based; conditions: Yes/No
# Experimental: In addition, Western-blot experiments at cellular level were conducted with some of the compounds in the present disclosure, with results listed in Table 1 on whether some of the compounds in the present disclosure inhibited H3K4 acetylation levels.
# The inhibition on MLL1 catalytic activities at the cellular level for some of the compounds was plotted in FIG. 2.
# [3] = test system: Hox and Meis-1 gene expression; test: RT-PCR at cellular level, Hox and Meis-1 gene expression; format: cell-based; conditions: Yes/No
# [4] = test system: MV4-11 human acute leukemia monocyte; test: Anti-proliferation on leukemia cells, MV4-11; format: cell-based; conditions: MV-411 cells
# Experimental: (§1) Anti-proliferation experiments were conducted with leukemia cells with some of the compounds in the present disclosure.
# [5] = test system: Molm-13 human acute myeloid leukemia cells; test: Anti-proliferation on leukemia cells, Molm-13; format: cell-based; conditions: Molm-13 cells
# Experimental: as §1
# [6] = test system: K562 human chronic myeloid leukemia cells; test: Anti-proliferation on leukemia cells, K562; format: cell-based
# Experimental: Anti-proliferation experiments were conducted with leukemia cells with some of the compounds in the present disclosure. Table 3 listed the results of evaluation of the anti-proliferation activities for some of the compounds from this present disclosure conducted with acute leukemia cells, wherein MV4-11 is human acute leukemia monocyte, Molm-13 is human acute myeloid leukemia cells, and K562 is human chronic myeloid leukemia cells.
# female balb/c mice = conditions: 80 mg/kg intraperitoneal, 10 consecutive days
# Experimental: In the meantime, subacute toxicity experiments were conducted to evaluate the safety of some of the compounds in the present disclosure in mouse.
GI50 [4],GI50 [5],Compound,IC50 [1],Inhibition on H3K4 acetylation level [2],Downregulation of Hox and Meis-1 expression [3],"GI50 ([4]; Homo sapiens, MV4-11)",GI50 [6],Average body weight changes (female balb/c mice),GI50 ([5]; Homo sapiens)
11.2 ± 1.3 µM,15.4 ± 2.2 µM,"5-amino-2-chloro-N-(5-(4-(4-(dimethylaminomethyl)benzyl)-1H-1,2,3-triazol-1-group)-2-(4-methylpiperazin-1-group group)phenyl)-4-fluoro-3-Methyl benzoyl [Example 18]",< 50 nM,Yes,Yes,,,,
,,"Cc1c(F)c(N)cc(C(=O)Nc2cc(-c3ccc(N)cc3)ccc2N2CCN(C)CC2)c1Cl [DDO-2084, reference compound]",88.7 ± 4.9 nM,Yes,Yes,17.7 ± 2.3 µM,50.5 ± 5.5 µM,,
,,"COC(=O)c1cn(-c2ccc(N3CCN(C)CC3)c(NC(=O)c3cc(N)c(F)c(C)c3Cl)c2)nn1 [Example 1, 1-(3-(5-amino-2-chloro-4-fluoro-3-methylbenzoylamino)-4-(4-methylpiperazine-1-group)phenyl)-1H-1,2,3-methyl triazole-4-carboxylate]",,Yes,Yes,,,,
,,Cc1c(F)c(N)cc(C(=O)Nc2cc(-n3cc(C(=O)N4CCOCC4)nn3)ccc2N2CCN(C)CC2)c1Cl [Example 4],,Yes,Yes,,34.4 ± 0.9 µM,slight body weight increase,
,,Cc1c(F)c(N)cc(C(=O)Nc2cc(-n3cc(C(=O)NCCCN4CCOCC4)nn3)ccc2N2CCN(C)CC2)c1Cl [Example 7],,,,,12.9 ± 0.4 µM,slight body weight increase,
,,"Cc1c(F)c(N)cc(C(=O)Nc2cc(-n3cc(NC(=O)CCCN)nn3)ccc2N2CCN(C)CC2)c1Cl [Example 16, 5-amino-N-(5-(4-(4-Aminobutyrylamino)-1H-1,2,3-triazol-1-group)-2-(4-methylpiperazin-1-group)phenyl)-2-chloro-4-fluoro-3-methyl benzoylamino]",< 10 nM,,,15.1 ± 0.9 µM,15 ± 0.8 µM,slight body weight increase,
,,"Cc1c(F)c(N)cc(C(=O)Nc2c(N3CCN(C)CC3)ccc(-n3cc(C(=O)NCCN4CCOCC4)nn3)c2C)c1Cl [Example 22, 1-(3-(5-amino-2-chloro-4-fluoro-3-Methylbenzoylamino)-2-methyl-4-(4-methylpiperazin-1-group)phenyl)-N-(2-Morpholineethyl)-1H-1,2,3-triazol-4-formamide]",< 10 nM,,,9.5 ± 0.4 µM,10.9 ± 0.7 µM,slight body weight increase,11.2 ± 0.8 µM
